Assay results published in ChEMBL document CHEMBL2412969, “Antihyperglycemic and antihyperlipidemic activities of 2-(4-[(2-hydroxybenzyl) amino]-phenyl amino-methyl)-phenol in STZ induced diabetic rats” (Eur J Med Chem, 2013).
The source made the active and inactive calls. No cut-off for these calls is given here.

Columns and labels:
[1] = system: Rattus norvegicus; test: Antihyperglycemic activity in Wistar albino rat streptozotocin-induced diabetic model assessed as reduction of blood glucose level at 30 mg/kg, po after 4 hrs (reference value: 373.5 +/- 15.6 mg/dl); assay type: functional
[2] = system: Rattus norvegicus; test: Antihyperglycemic activity in Wistar albino rat streptozotocin-induced diabetic model assessed as reduction of blood glucose level at 30 mg/kg, po after 3 hrs (reference value: 384.33 +/- 17.33 mg/dl); assay type: functional
[3] = system: Rattus norvegicus; test: Antihyperglycemic activity in Wistar albino rat streptozotocin-induced diabetic model assessed as reduction of blood glucose level at 30 mg/kg, po after 2 hrs (reference value: 386.66 +/- 17.5 mg/dl); assay type: functional
[4] = system: Rattus norvegicus; test: Antihyperglycemic activity in Wistar albino rat streptozotocin-induced diabetic model assessed as reduction of blood glucose level at 20 mg/kg, po after 5 hrs (reference value: 372.2 +/- 16.6 mg/dl); assay type: functional
[5] = system: Rattus norvegicus; test: Antihyperglycemic activity in Wistar albino rat streptozotocin-induced diabetic model assessed as reduction of blood glucose level at 20 mg/kg, po after 2 hrs (reference value: 386.66 +/- 17.5 mg/dl); assay type: functional
[6] = system: Rattus norvegicus; test: Hypoglycemic activity in Wistar albino rat assessed as reduction of blood glucose level at 60 mg/kg, po after 4 hrs (reference value: 75.8 +/- 4.7 mg/dl); assay type: ADME, organism-based; set-up: dose 60 mg/kg, route oral; conditions: in vivo
[7] = system: Rattus norvegicus; test: Hypoglycemic activity in Wistar albino rat assessed as reduction of blood glucose level at 30 mg/kg, po after 4 hrs (reference value: 75.8 +/- 4.7 mg/dl); assay type: ADME, organism-based; set-up: dose 30 mg/kg, route oral; conditions: in vivo
[8] = system: Rattus norvegicus; test: Hypoglycemic activity in Wistar albino rat assessed as reduction of blood glucose level at 20 mg/kg, po after 4 hrs (reference value: 75.8 +/- 4.7 mg/dl); assay type: ADME, organism-based; set-up: dose 20 mg/kg, route oral; conditions: in vivo
[9] = system: Rattus norvegicus; test: Hypoglycemic activity in Wistar albino rat assessed as reduction of blood glucose level at 20 mg/kg, po after 2 hrs (reference value: 76.5 +/- 3.7 mg/dl); assay type: ADME, organism-based; set-up: dose 20 mg/kg, route oral; conditions: in vivo
[10] = system: Rattus norvegicus; test: Hypoglycemic activity in Wistar albino rat assessed as reduction of blood glucose level at 20 mg/kg, po after 5 hrs (reference value: 73.8 +/- 4.5 mg/dl); assay type: ADME, organism-based; set-up: dose 20 mg/kg, route oral; conditions: in vivo
[11] = system: Rattus norvegicus; test: Hepatotoxicity in Wistar albino rat assessed as AST, ALT and ALP level in serum at 30 mg/kg, po qd for 30 days; assay type: toxicity, organism-based; set-up: dose 30 mg/kg, route oral; conditions: in vivo, 720 h
[12] = system: Rattus norvegicus; test: Renalprotective activity in Wistar albino rat assessed as protection against streptozotocin-induced increase in creatinine level in blood at 30 mg/kg, po qd for 30 days; assay type: functional
[13] = system: Rattus norvegicus; test: Antiatherosclerosis activity in Wistar albino rat assessed as protection from atherogenicity at 30 mg/kg, po qd for 30 days relative to control; assay type: functional
[14] = system: Rattus norvegicus; test: Antihyperlipidemic activity in Wistar albino rat streptozotocin-induced diabetic model assessed as reduction of serum VLDL-cholesterol level at 30 mg/kg, po qd for 30 days; assay type: functional, organism-based; set-up: dose 30 mg/kg
[15] = system: Rattus norvegicus; test: Antihyperlipidemic activity in Wistar albino rat streptozotocin-induced diabetic model assessed as reduction of serum triglyceride level at 30 mg/kg, po qd for 30 days; assay type: functional, organism-based; set-up: dose 30 mg/kg
[16] = system: Rattus norvegicus; test: Antihyperglycemic activity in Wistar albino rat streptozotocin-induced diabetic model assessed as increase of body weight at 30 mg/kg, po qd measured on day 15 (reference value: -30.3%); assay type: functional
[17] = system: Rattus norvegicus; test: Antihyperglycemic activity in Wistar albino rat streptozotocin-induced diabetic model assessed as reduction of fasting blood glucose level at 30 mg/kg, po qd measured on day 30 relative to control; assay type: functional
[18] = system: Rattus norvegicus; test: Antihyperglycemic activity in Wistar albino rat streptozotocin-induced diabetic model assessed as reduction of fasting blood glucose level at 30 mg/kg, po qd measured on day 1 (reference value: 416.4 +/- 24.2 mg/dl); assay type: functional
[19] = system: Rattus norvegicus; test: Hypoglycemic activity in Wistar albino rat assessed as reduction of fasting blood glucose level at 30 mg/kg, po qd measured on day 30 (reference value: 94.8 +/- 10.4 mg/dl); assay type: ADME, organism-based; set-up: dose 30 mg/kg, route oral; conditions: in vivo
[20] = system: Rattus norvegicus; test: Hypoglycemic activity in Wistar albino rat assessed as reduction of fasting blood glucose level at 30 mg/kg, po qd measured on day 1 (reference value: 89 +/- 6.4 mg/dl); assay type: ADME, organism-based; set-up: dose 30 mg/kg, route oral; conditions: in vivo
[21] = system: Rattus norvegicus; test: Antihyperglycemic activity in glucose loaded Wistar albino rat streptozotocin-induced diabetic model assessed as reduction of blood glucose level at 30 mg/kg, po after 3 hrs by oral glucose tolerance test; assay type: functional; set-up: scale not given: the % may be the effect or the level left
[22] = system: Rattus norvegicus; test: Antihyperglycemic activity in Wistar albino rat streptozotocin-induced diabetic model assessed as reduction of blood glucose level at 60 mg/kg, po after 5 hrs (reference value: 372.2 +/- 16.6 mg/dl); assay type: functional
[23] = system: Rattus norvegicus; test: Antihyperglycemic activity in Wistar albino rat streptozotocin-induced diabetic model assessed as reduction of blood glucose level at 60 mg/kg, po after 4 hrs (reference value: 373.5 +/- 15.6 mg/dl); assay type: functional
[24] = system: Rattus norvegicus; test: Antihyperglycemic activity in Wistar albino rat streptozotocin-induced diabetic model assessed as reduction of blood glucose level at 60 mg/kg, po after 1 hr (reference value: 389.16 +/- 19 mg/dl); assay type: functional

Activity [6]: 79.3 mg/dL | Activity [7]: 73.16 mg/dL | Activity [8]: 72 mg/dL | Activity [9]: 73.16 mg/dL | Activity [10]: 70.1 mg/dL | Activity [19]: 98.67 mg/dL | Activity [20]: 90.6 mg/dL
SMILES: Oc1ccccc1CNc1ccc(NCc2ccccc2O)cc1
Activity [1]: 215.6 mg/dL | Activity [2]: 248.8 mg/dL | Activity [3]: 252.1 mg/dL | Activity [4]: 204.8 mg/dL | Activity [5]: 312.83 mg/dL | Activity [11]: Non-toxic | Activity [12]: 0.462 mg/dL | Activity [13]: 70.1% | Activity [14]: Active | Activity [15]: Active | Activity [16]: 8.57% | Activity [17]: 113.5 mg/dL | Activity [18]: 333 mg/dL | Activity [21]: 56% | Activity [22]: 49.1 mg/dL | Activity [23]: 54.8 mg/dL | Activity [24]: 233.16 mg/dL
